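Cultured in 96-well plates, cells were exposed to test compound for 48 hours across five concentrations. GI50 is the concentration that inhibits growth by half.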 Activity calls are given as the source filed them. Rule as the data show it: active = GI50 up to about 1.1 µM and inactive = higher. Where a SMILES comes first, the peptide text is derived from it.
Tests used:
Experiment in all cases: NCI tumour cell line growth inhibition, 48 h
[1] = tested on: NCI-H522
[2] = tested on: HOP-62
[3] = tested on: IGROV-1
[4] = tested on: DU-145
[5] = tested on: BT-549
[6] = tested on: RPMI-8226
[7] = tested on: U-251
[8] = tested on: SK-MEL-2
[9] = tested on: SN12C
[10] = tested on: HT-29
[11] = tested on: HCT-116
[12] = tested on: SF-539
[13] = tested on: ACHN
[14] = tested on: M14
[15] = tested on: T47D
[16] = tested on: NCI-H460
[17] = tested on: OVCAR-4
[18] = tested on: MDA-MB-231
[19] = tested on: RXF 393
[20] = tested on: SF-295

Measured: GI50

Sc1ccc2ccccc2c1CNCc1ccccc1
inactive: [1] 4.93 µM | [2] 15.4 µM | [3] 2.65 µM | [4] 18.4 µM | [5] 15.8 µM | [6] 12.5 µM | [7] 12.8 µM | [8] 19.7 µM | [9] 6.24 µM | [10] 27.9 µM | [11] 13.8 µM | [12] 10 µM | [13] 19 µM | [14] 10 µM | [15] 19.3 µM | [16] 24.1 µM | [17] 10.9 µM | [18] 18.5 µM | [19] 11.8 µM | [20] 19.4 µM

CC(C)c1ccc(/C=C2\CSCC3=C2N=C(S)NC3c2ccc(C(C)C)cc2)cc1 (stereo not given)
inactive: [1] 53.6 µM | [2] > 100 µM | [3] > 100 µM | [4] > 100 µM | [5] > 100 µM | [6] 67.6 µM | [7] 85.1 µM | [8] > 100 µM | [9] > 100 µM | [10] 45.1 µM | [11] 44.9 µM | [12] > 100 µM | [13] > 100 µM | [14] > 100 µM | [15] 80.4 µM | [16] > 100 µM | [17] > 100 µM | [18] > 100 µM | [19] 30.9 µM | [20] 75.9 µM

CC(=O)O[C@H]1CC(C)(C)C(=C=C/C(C)=C/C=C/C=C/C=C(C)/C=C2C=C(/C=C/[C@@]34O[C@]3(C)C[C@@H](O)CC4(C)C)C(=O)O/2)[C@](C)(O)C1
inactive: [1] 3.99 µM | [2] 13.3 µM | [3] 2.88 µM | [4] 33.2 µM | [5] 2.51 µM | [6] 4.38 µM | [7] 10.7 µM | [8] 3.31 µM | [9] 11.7 µM | [10] 21.2 µM | [11] 5.33 µM | [12] 17.8 µM | [13] 19.3 µM | [14] 11.7 µM | [15] 4.27 µM | [16] 8.09 µM | [17] 4.75 µM | [18] 31.1 µM | [19] 4.01 µM | [20] 13.5 µM

Nc1ccccc1OCCCOc1ccccc1N
inactive: [1] > 100 µM | [2] > 100 µM | [3] > 100 µM | [4] > 100 µM | [5] > 100 µM | [6] > 100 µM | [7] > 100 µM | [8] > 100 µM | [9] > 100 µM | [10] > 100 µM | [11] > 100 µM | [12] > 100 µM | [13] > 100 µM | [14] > 100 µM | [15] > 100 µM | [16] > 100 µM | [17] > 100 µM | [18] > 100 µM | [19] > 100 µM | [20] > 100 µM

O=c1c(Cl)cc2nc3ccccc3sc-2c1Cl
inactive: [1] 12.4 µM | [2] 26.1 µM | [3] 13.6 µM | [4] 12.9 µM | [5] 11.7 µM | [6] 4.25 µM | [7] 17.6 µM | [8] 13.7 µM | [9] 17 µM | [10] 23.2 µM | [11] 16.2 µM | [12] 16.7 µM | [13] 15.9 µM | [14] 11.7 µM | [15] 5 µM | [16] 18 µM | [17] 13.2 µM | [18] 5.78 µM | [19] 18.5 µM | [20] 16.9 µM

O=C(NCCc1ccccc1)c1cc(/C=C/c2cc(O)ccc2O)ccc1O
inactive: [1] 1.64 µM | [2] 5.69 µM | [3] 3.03 µM | [4] 8.59 µM | [5] 1.78 µM | [6] 1.82 µM | [7] 2.36 µM | [8] 3.57 µM | [9] 4.92 µM | [10] 18.3 µM | [11] 1.81 µM | [12] 2.38 µM | [13] 2.2 µM | [14] 5.56 µM | [15] 1.92 µM | [16] 9.44 µM | [17] 2.27 µM | [18] 4.36 µM | [19] 1.93 µM | [20] 15.9 µM

CC(=O)NC(CS)C(=O)NC(CO)C(=O)NC(CO)C(=O)NC(Cc1c[nH]c2ccccc12)C(=O)N1CCCC1C(=O)NC(CO)C(=O)NC(Cc1c[nH]c2ccccc12)C(=O)NC(Cc1c[nH]cn1)C(=O)NC(CO)C(=O)NC(Cc1c[nH]c2ccccc12)C(=O)NCC(=O)NCC(=O)NC(CC(=O)O)C(=O)NC(CCC(N)=O)C(=O)NC(CCCCN)C(=O)NC(Cc1ccccc1)C(=O)NC(CCCNC(=N)N)C(=O)NC(CCCCN)C(N)=O (stereo not given) (Ac-CSSWPSWHSWGGDQKFRK-NH2; configuration not given here)
inactive: [1] > 25 µM | [2] > 25 µM | [3] > 25 µM | [4] > 25 µM | [5] > 25 µM | [6] > 25 µM | [7] > 25 µM | [8] > 25 µM | [9] > 25 µM | [10] > 25 µM | [11] > 25 µM | [12] > 25 µM | [13] > 25 µM | [14] > 25 µM | [15] > 25 µM | [16] > 25 µM | [17] > 25 µM | [18] > 25 µM | [19] > 25 µM | [20] > 25 µM
